Source: US20140296153A1, “Oligodendrocyte Differentiation” (priority 2011, published 2014)

Tests used:
OPC = settings: cited from earlier work
SVZ cells [1] = experiment: Single cell calcium imaging (SCCI) of oligodendrocytic differentiation; type: cell-based, mouse; settings: AM251 1 μM co-treated with Hp 1 μM, 7 days, 8 coverslips
Procedure: To investigate the influence of Hp on oligodendrocytic differentiation, SVZ neurospheres were allowed to develop for 7 days Hp (100 nm, 1 μM), in serum free medium devoid of growth factor at 37° C.
To determine the functional differentiation pattern of SVZ cells, we analyzed the variations of intracellular calcium-free levels ([Ca^2+]i) in single cells following stimulation with 50 mM KCl, 100 μM histamine (Sigma-Aldrich, St. Louis, Mo. USA) and 0.1 U/ml thrombin (Sigma-Aldrich) stimulation. KCl depolarization causes an increase in [Ca^2+]i in neurons, whereas stimulation with histamine leads to an increase in [Ca^2+]i in stem/progenitor cells, while thrombin leads to an increase in [Ca^2+]i in oligodendrocytes. SVZ cultures were loaded for 40 minutes with 5 μM Fura—2/AM (Molecular Probes, Carlsbad, Calif., USA), 0.1% fatty acid-free BSA, and 0.02% pluronic acid F-127 (Molecular Probes) in Krebs solution (132 mM NaCl, 4 mM KCl, 1.4 mM MgCl2, 1 mM CaCl2, 6 mM glucose, 10 mM HEPES, pH 7.4), in an incubator with 5% CO2 and 95% atmospheric air at 37° C. After a 10-minute postloading period at room temperature (RT) in the same medium without Fura-2/AM and pluronic acid, to obtain a complete hydrolysis of the probe, the glass coverslip was mounted on an RC-20 chamber in a PH3 platform (Warner Instruments, Hamden, Conn., USA) on the stage of an inverted fluorescence microscope (Axiovert 200, Carl Zeiss). […] The variations of [Ca^2+]i were evaluated by quantifying the ratio of the fluorescence emitted at 510 nm following alternate excitation (750 msec) at 340 and 380 nm, using a Lambda DG4 apparatus (Sutter Instrument, Novato, Calif., USA) and a 510 nm band-pass filter (Carl Zeiss) before fluorescence acquisition with a x40 objective and a CoolSNAP digital camera (Roper Scientific, Trenton, N.J., USA). […] KCl, histamine, and thrombin peaks given by the normalized ratios of fluorescence at 340/380 nm, at the proper time periods, were used to calculate the ratios of the responses to histamine/KCl (Hist/KCl-neuronal-like profile) and to thrombin/histamine (Throm/Hist-oligodendrocytic-like profile).
Fluorescence images were recorded using an LSM 510 Meta confocal microscope or an Axioskop 2 Plus fluorescence microscope (both from Carl Zeiss). […] Percentages of TUNEL or BrdU immunoreactive cells in SVZ cell cultures were calculated from cell counts in five independent microscopic fields in each coverslip with a x40 objective (approximately 200 cells per field). […] For SCCl experiments, the percentage of oligodendrocytic-like responding cells (with a Thromb/Hist ratio above 1.3) was calculated on the basis of one microscopic field per coverslip, containing approximately 100 cells (magnification, ×40). […]

SVZ cells [2] = experiment: SVZ self-renewal assay (secondary neurospheres); type: cell-based, mouse; settings: primary neurospheres exposed to HGF 50 ng.ml^−1 for 6 days, replated without HGF
SVZ cells [3] = experiment: SVZ neurosphere forming assay (primary neurospheres); type: cell-based, mouse; settings: HGF 50 ng.ml^−1, 6 days, SFM with 5 ng/ml EGF and 2.5 ng/ml FGF-2
Procedure: Neurosphere forming and self-renewal assays were performed on SVZ cells seeded at clonal density, 2500 cells per well in 24-well cell culture plates in SFM containing 5 ng/ml EGF and 2.5 ng/ml FGF-2 and supplemented or not (control) with 1 μM Hp or 50 ng.ml^−1 hepatocyte growth factor (carrier free recombinant human HGF, R&D Systems, Lille, France). After 6 days, the numbers of primary neurospheres were determined. For self-renewal assay, neurospheres were collected, dissociated as single cells and seeded in SFM containing 5 ng/ml EGF and 2.5 ng/ml FGF-2 in 24 well plates. After 6 days, the number of secondary neurospheres was counted.
Fluorescence images were recorded using an LSM 510 Meta confocal microscope or an Axioskop 2 Plus fluorescence microscope (both from Carl Zeiss). In all experiments, measurements were performed in the border of SVZ neurospheres where migrating cells form a cell monolayer. For the SVZ neurosphere forming and self-renewal assays the experiments were replicated in five independent culture preparations and each experimental condition was assayed in four different coverslips. For the remaining experiments, each condition was assayed in three different coverslips, and except where otherwise specified, the experiments were replicated in three independent culture preparations. Percentages of TUNEL or BrdU immunoreactive cells in SVZ cell cultures were calculated from cell counts in five independent microscopic fields in each coverslip with a x40 objective (approximately 200 cells per field). Software used was Axiovision, release 4.6 (Carl Zeiss). For SCCl experiments, the percentage of oligodendrocytic-like responding cells (with a Thromb/Hist ratio above 1.3) was calculated on the basis of one microscopic field per coverslip, containing approximately 100 cells (magnification, ×40).
Neural stem-like cells are characterized in vitro by both their capacity to give rise to neurospheres and to self-renew when cultured in the presence of mitogens.

[4] = administered to rats; cited from earlier work
CB1R = CB1R (Homo sapiens, UniProt P21554); settings: cited from earlier work
CB1R, sequence (P21554 whole entry): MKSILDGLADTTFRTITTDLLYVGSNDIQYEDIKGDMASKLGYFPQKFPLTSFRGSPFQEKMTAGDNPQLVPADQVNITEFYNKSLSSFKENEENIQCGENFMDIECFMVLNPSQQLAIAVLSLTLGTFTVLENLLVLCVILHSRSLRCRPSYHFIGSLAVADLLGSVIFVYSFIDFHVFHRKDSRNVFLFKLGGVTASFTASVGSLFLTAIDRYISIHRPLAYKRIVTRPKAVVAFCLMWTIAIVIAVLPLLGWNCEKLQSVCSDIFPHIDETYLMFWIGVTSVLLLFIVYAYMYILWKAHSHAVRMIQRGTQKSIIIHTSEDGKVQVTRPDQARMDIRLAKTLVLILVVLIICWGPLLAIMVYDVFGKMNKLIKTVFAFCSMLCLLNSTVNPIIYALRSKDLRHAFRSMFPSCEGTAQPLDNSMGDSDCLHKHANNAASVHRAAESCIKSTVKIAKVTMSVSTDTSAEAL

Which “OPC differentiation into mature oligodendrocytes” value (OPC) does the source give for `COc1ccc(C(=O)c2c(C)n(CCN3CCOCC3)c3cc(I)ccc23)cc1` [AM630] here?
Its value is “do not induce but impair”.

Which “cells responding with a Throm/Hist ratio above 1.3 (oligodendrocyte-like responding cells)” value (SVZ cells [1]) does the source give for `Cc1c(C(=O)NN2CCCCC2)nn(-c2ccc(Cl)cc2Cl)c1-c1ccc(I)cc1` [Am 251, reference compound] here?
Its value is 1.07±0.24%.

Which “OPC differentiation into mature oligodendrocytes” value (OPC) does the source give for `Cc1c(C(=O)NN2CCCCC2)nn(-c2ccc(Cl)cc2Cl)c1-c1ccc(Cl)cc1` [rimonabant] here?
Its value is “do not induce but impair”.

What does the source list for “HGF: carrier free recombinant human HGF, used as a positive control”?
number of secondary neurospheres (control 100%) (SVZ cells [2]): 120.0±11.54%; number of primary neurospheres (control 100%) (SVZ cells [3]): 121.0±13.14%

For “PVNFKWLSH (listed as Homo sapiens) [SEQ ID 4, variant of Hp peptide]”, which “periepididymal and visceral fat content compared to the control group” value [4] is on record?
The value was “reduced”.

With “RVDPVNFKFLSH (listed as Homo sapiens) [SEQ. ID. 3, N-terminally extended variant of Hp, Arg Val Asp Pro Val Asn Phe Lys Phe Leu Ser His]” as the compound, how does the “activity at CB1R cannabinoid receptors” value (CB1R) read?
The value was “function as agonists”.

For “VDPVNFKFLSH (listed as Homo sapiens) [SEQ. ID. 2, N-terminally extended variant of Hp, Val Asp Pro Val Asn Phe Lys Phe Leu Ser His]”, which “activity at CB1R cannabinoid receptors” value (CB1R) is on record?
Its value is “function as agonists”.
